Experimental data: patent US10674732B2, “Anti-phytopathogenic compositions” (The State of Israel, Ministry Of Agriculture & Rural …, priority 2015, dated 2020)
Converted amounts (≈) assume the structure as drawn.

Columns and labels:
Spiroplasma melliferum [1] = experiment: Microplate test of spiroplasma growth (OD=595 nm); type: cell-based; conditions: for spiroplasma growth inhibition: single compound
Method: For this reason, the potential inhibition of these substances was tested on Spiroplasma melliferum, a cultivable Mollicute. The experiment was conducted in a 96-wells microplate. 150 μl fresh broth containing phenol red and 4 μl spiroplasma cells (app. 10^5 cells) were added to each well. […] The microplate was incubated for two days at 28° C. and the color of the medium was scored by a plate-reader (Multiskan EX, Thermo scientific, Waltham, Mass. USA) at OD=595 nm.

spiroplasma = experiment: Antagonistic test of the bacteria's specific compounds (synthetic compounds on spiroplasma in vitro); type: cell-based, Spiroplasma melliferum; conditions: 1 milimolar, three days at 29° C.
Method: After potential inhibitory compounds (4-Quinolinecarboxaldehyde and 5-Hydroxymethyl-2-furaldehyde) were identified in the active fraction extracts of the bacteria's supernatant, parallel synthetic compound were purchased (Sigma) and examined on spiroplasma in vitro: 1 ml of spiroplasma medium, 10 μl spiroplasma cells and 10 μl of each compound (final concentration of 1 milimolar) were incubated for three days at 29° C. […] Changes in the indicator color from red to yellow indicated spiroplasma growth.

DLB = DLB antibiotic susceptibility test; type: cell-based, Dyella-like bacterium
Spiroplasma melliferum [2] = experiment: Antagonistic test of the bacteria's supernatant (time to color change of phenol red medium); conditions: 0.5 μg/ml

Compound | Inhibition cycle diameter (DLB) | resistance of the bacterium to the antibiotic (DLB) | also measured
O=Cc1ccc(CO)o1 [Hydroxymethyl-2-furaldehyde, 5-Hydroxymethyl-2-furaldehyde] | – | – | spiroplasma growth inhibition (Spiroplasma melliferum [1]; concentrations examined (2-0.02 mM)): No inhibition; spiroplasma growth inhibition (spiroplasma): no inhibition
c1cc2cnccn2c1 [Pyrrolo[1,2-a]pyrazine] | – | – | spiroplasma growth inhibition (Spiroplasma melliferum [1]; 1 mM): at 2 mM only; spiroplasma growth inhibition (Spiroplasma melliferum [1]; 2 mM): inhibit
O=Cc1ccnc2ccccc12 [Quinolinecarboxaldehyde, 4-Quinolinecarboxaldehyde] | – | – | spiroplasma growth inhibition (Spiroplasma melliferum [1]; 1 mM): inhibited; spiroplasma growth inhibition (Spiroplasma melliferum [1]; 2 mM): inhibited; minimum inhibitory concentration (MIC) compared with reference oxytetracycline (Spiroplasma melliferum [1]; two days at 28° C.): higher than the reference antibiotics; spiroplasma growth inhibition (spiroplasma): able to inhibit
NCC[C@H](O)C(=O)N[C@@H]1C[C@H](N)[C@@H](O[C@H]2O[C@H](CN)[C@@H](O)[C@H](O)[C@H]2O)[C@H](O)[C@H]1O[C@H]1O[C@H](CO)[C@@H](O)[C@H](N)[C@H]1O [amikacin] | 10 mm | – | –
CC1(C)S[C@@H]2[C@H](NC(=O)[C@H](N)c3ccc(O)cc3)C(=O)N2[C@H]1C(=O)O [amoxycillin] | 10 mm | – | –
CC1(C)S[C@@H]2[C@H](NC(=O)[C@H](N)c3ccccc3)C(=O)N2[C@H]1C(=O)O [ampicilin A] | 10 mm | – | –
C[C@H]1[C@H](NC(=O)/C(=N\OC(C)(C)C(=O)O)c2csc(N)n2)C(=O)N1S(=O)(=O)O [aztreonam] | 1 mm | resistant | –
CC1(C)S[C@@H]2[C@H](NC(=O)C(C(=O)O)c3ccccc3)C(=O)N2[C@H]1C(=O)O (stereo partly shown) [carbencillin] | 10 mm | – | –
CO/N=C(\C(=O)N[C@@H]1C(=O)N2C(C(=O)[O-])=C(C[N+]3(C)CCCC3)CS[C@H]12)c1csc(N)n1 [cefeprime] | 1 mm | resistant | –
CO/N=C(\C(=O)N[C@@H]1C(=O)N2C(C(=O)O)=C(CSc3nc(=O)c(=O)[nH]n3C)CS[C@H]12)c1csc(N)n1 [ceftriaxone] | 10 mm | – | –
CO/N=C(\C(=O)N[C@@H]1C(=O)N2C(C(=O)O)=C(COC(N)=O)CS[C@H]12)c1ccco1 [cefuroxime] | 1 mm | resistant | –
CC(=O)OCC1=C(C(=O)O)N2C(=O)[C@@H](NC(=O)Cc3cccs3)[C@H]2SC1 [cephalothin] | 2 mm | resistant | –
O=C(N[C@H](CO)[C@H](O)c1ccc([N+](=O)[O-])cc1)C(Cl)Cl [chloramphenicol] | 10 mm | – | –
O=C(O)c1cn(C2CC2)c2cc(N3CCNCC3)c(F)cc2c1=O [ciprofloxacin] | 2 mm | resistant | –
C[C@@H](O)[C@H]1C(=O)N2C(C(=O)O)=C(SCCN=CN)C[C@H]12 [imipenem] | 2-3 mm | – | –
NC[C@H]1O[C@H](O[C@H]2[C@H](O)[C@@H](O[C@H]3O[C@H](CO)[C@@H](O)[C@H](N)[C@H]3O)[C@H](N)C[C@@H]2N)[C@H](O)[C@@H](O)[C@@H]1O [kanamycin] | 10 mm | – | –
C[C@@H](O)[C@H]1C(=O)N2C(C(=O)O)=C(S[C@@H]3CN[C@H](C(=O)N(C)C)C3)[C@H](C)[C@H]12 [meropenem] | 1 mm | resistant | –

Compound | Inhibition cycle diameter (DLB) | resistance of the bacterium to the antibiotic (DLB) | also measured
CCn1cc(C(=O)O)c(=O)c2ccc(C)nc21 [nalidixic acid] | 1 mm | resistant | –
O=C1CN(/N=C/c2ccc([N+](=O)[O-])o2)C(=O)N1 [nitrofuration] | 2 mm | resistant | –
CCn1cc(C(=O)O)c(=O)c2cc(F)c(N3CCNCC3)cc21 [norfloxacin] | 2 mm | resistant | –
CN(C)[C@@H]1C(O)=C(C(N)=O)C(=O)[C@@]2(O)C(O)=C3C(=O)c4c(O)cccc4[C@@](C)(O)[C@H]3[C@H](O)[C@@H]12 [oxytetracycline] | – | – | MIC (Spiroplasma melliferum [1]; Spiroplasma melliferum, 48 h, two days at 28° C., FIG. 9, read-out: minimum inhibitory concentration (MIC)): 350 µM (≈ 161 µg/mL); Inhibition index (ratio of days to color change to the time required in the positive control) (Spiroplasma melliferum [2]): 2.3
CCN1CCN(C(=O)N[C@@H](C(=O)N[C@@H]2C(=O)N3[C@@H]2SC(C)(C)[C@@H]3C(=O)O)c2ccccc2)C(=O)C1=O [piperacillin] | 10 mm | – | –
[H]/N=C(/N)N[C@H]1[C@H](O)[C@@H](O)[C@H](O[C@@H]2O[C@@H](C)[C@](O)(C=O)[C@H]2O[C@@H]2O[C@@H](CO)[C@H](O)[C@@H](O)[C@@H]2NC)[C@@H](N/C(N)=N\[H])[C@@H]1O [streptomycin] | 10 mm | – | –
Cc1cc(NS(=O)(=O)c2ccc(N)cc2)no1 [sulphamethoxazole] | 10 mm | – | –
CN(C)[C@@H]1C(O)=C(C(N)=O)C(=O)[C@@]2(O)C(O)=C3C(=O)c4c(O)cccc4[C@@](C)(O)[C@H]3C[C@@H]12 [tetracycline] | 10 mm | – | –
CC1(C)S[C@@H]2[C@H](NC(=O)[C@H](C(=O)O)c3ccsc3)C(=O)N2[C@H]1C(=O)O [ticarcillin] | 10 mm | – | –
NC[C@H]1O[C@H](O[C@H]2[C@H](O)[C@@H](O[C@H]3O[C@H](CO)[C@@H](O)[C@H](N)[C@H]3O)[C@H](N)C[C@@H]2N)[C@H](N)C[C@@H]1O [tobaramycin] | 10 mm | – | –
COc1cc(Cc2cnc(N)nc2N)cc(OC)c1OC [trimethoprime] | 10 mm | – | –
CN[C@H](CC(C)C)C(=O)N[C@H]1C(=O)N[C@@H](CC(N)=O)C(=O)N[C@H]2C(=O)N[C@H]3C(=O)N[C@H](C(=O)N[C@H](C(=O)O)c4cc(O)cc(O)c4-c4cc3ccc4O)[C@H](O)c3ccc(c(Cl)c3)Oc3cc2cc(c3O[C@@H]2O[C@H](CO)[C@@H](O)[C@H](O)[C@H]2O[C@H]2C[C@](C)(N)[C@H](O)[C@H](C)O2)Oc2ccc(cc2Cl)[C@H]1O [vancomycin] | 10 mm | – | –
colistinsulfate | 2-3 mm | resistant | –
gentanicin G | 10 mm | – | –
neomycin | 10 mm | – | –
polymyxin-B | 10 mm | – | –
